Measured values: US12180255B2, “Compositions and methods for derepressing RE1 silencing transcription factor target genes” (Alcamena Stem Cell Therapeutics, LLC, priority 2019, dated 2024)

Columns and labels:
[1] = Conditioned Place Preference after morphine in SNI mice; format: in vivo; details: 4 doses
Source text: FIG. 24. Conditioned Place Preference (CPP) after conditioning with saline (control) and 4 doses of morphine (MOR) in SNI mice.

[2] = Mechanical pain threshold after SNI, morphine analgesia; format: in vivo; details: single S.C. injection, n=4
Description: FIG. 23. […] B. Analgesic effect of single S.C. injection of morphine on MT post-injury (SNI+MOR, n=4). Mean±SEM; F=4.62, *p<0.05 by one-way ANOVA before and after treatment; mean difference and 95% CI=−7.3, −14.5 to −0.135, p<0.05 by Bonferroni's Multiple Comparison test. 20 mg/Kg of MOR (n=4; F=19.03, **p<0.001 by one-way ANOVA).

His-CTDSP1 = target: T1, His-CTDSP1 (Homo sapiens, UniProt Q9GZU7); experiment: Binding affinity of RPP for CTDSP1, Monolith (NanoTemper); details: His-CTDSP1 40 nM labelled with RED-tris NTA dye 20 nM
T1 construct: made in house; host or cells: E. coli 10G (Lucigen), pBAD-HisA
T1 sequence (Q9GZU7 with tags, fused parts or gaps): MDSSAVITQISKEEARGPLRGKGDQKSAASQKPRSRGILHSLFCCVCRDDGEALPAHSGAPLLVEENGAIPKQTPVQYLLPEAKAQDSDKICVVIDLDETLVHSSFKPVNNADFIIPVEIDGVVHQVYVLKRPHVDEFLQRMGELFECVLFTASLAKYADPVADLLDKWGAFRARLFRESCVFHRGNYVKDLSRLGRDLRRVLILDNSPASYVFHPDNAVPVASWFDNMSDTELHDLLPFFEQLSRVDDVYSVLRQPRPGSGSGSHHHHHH
Description: FIG. 2. Binding affinity of the REST phosphomimetic peptide (RPP) for CTDSP1 was measured using the Monolith (NanoTemper). […] Binding was assessed by fluorescently labelling the His tag on CTDSP1 (40 nM) with RED-tris NTA dye (20 nM) and measuring the change in fluorescents when RPP (up to […]) is bound.
Expression constructs for His-CTDSPL (Table 2; SEQ ID NO: 162) and GST-RPP (Table 4; SEQ ID NO: 164) were constructed and purified as described in Example 2. The His tag on CTDSP1 (40 nM) was labelled with RED-tris NTA dye (20 nM), with a […] dye to CTDSP1 ratio, and unbound dye was removed by gravity-flow size exclusion. Binding affinity of the linear GST-RPP (Table 4; SEQ ID NO: 165) to His-CTDSP1 (Table 2; SEQ ID NO:163) was determined using Monolith (NanoTemper), following manufacturer recommendations. Results of the binding assay are presented in FIG. 2: The RPP (Table 4; SEQ ID NO: 165) was assessed for binding to His-CTDSP1 at several concentrations ranging from low pM up to 0.5 μM.

NBFL cells = experiment: KV4.3 mRNA in NBFL cells transfected with plasmid expressing RPP; format: cell-based
Description: FIG. 8. mRNA levels of KV4.3 in NBFL cells 48 h after CTDSP1 inhibition. Cells were transfected with a plasmid expressing RPP (SEQ ID NO: 1) with GFP (+) or a control peptide with GFP (−). 24 hours after transfection, cells were sorted based on fluorescence intensity. Error bars represent standard deviation, n=2.
Transient Transfections and Cell Culture. NBFL cells were grown as previously described^120. 0.5 M NFBL cells were seeded on a 35 mm dish, incubated at 37° C. overnight, and transfected with 2 μg of REST (SEQ. ID NO: 1)-IRES-GFP cDNA^2 using lipofectamine2000 (Life Technologies), following manufacturer recommendations. After a 48 hour incubation period, cell were sorted by fluorescence activated cell sorting (FACS),
mRNA extraction and quantification. mRNA was extracted, as described in Example 10, from GFP+ and − cells; mRNA levels of KV4.3 were determined using real-time RT-PCR^116. Gene expression was normalized using β-actin (ACTB) as an internal housekeeping control. The β-actin primers used are the same as Example 10. The KV4.3 primers were: forward: […] (SEQ ID NO: 336) and reverse: […] (SEQ ID NO: 337).

Compound: CN1CC[C@]23c4c5ccc(O)c4O[C@H]2[C@@H](O)C=C[C@H]3[C@H]1C5 [morphine]
- Conditioned Place Preference (CPP) [1]: induced CPP in a dose-dependent manner
- mechanical pain threshold (MT), mean difference before and after treatment [2]: −7.3

Compound: SEQ ID NO: 165: RPP-GST fusion protein, MCTEDLEPPEPPLPKENC linked to GST (Table 4)
- Kd (His-CTDSP1): ~130 pM

Compound: TEDLEPPEPPLPKEN [SEQ ID NO: 1, REST phosphomimetic peptide (RPP)]
- increase in KV4.3 mRNA (NBFL cells; NBFL cells transfected with RPP): 2 fold
- Increase, KV4.3 mRNA (NBFL cells; NBFL, 2 μg (transfected), 48 h): 3x
